Reference: paper PMC7327145 (Biomolecules & Therapeutics, 2020)
Where “and” joins values, the source holds several entries; their conditions need not be identical. Identical values can stand only once. Like-named read-outs stand apart in the source and are kept apart here.

How the values were obtained:
[1] = format: in vivo, rat; conditions: for CL renal: plasma and urine, CLR; for bioavailability: oral, F (bioavailability), oral 20 mg/kg vs intravenous 10 mg/kg
[2] = hepatic microsomes, SIDM vs control
[3] = Rat plasma protein binding by equilibrium dialysis; format: in vitro ADME; conditions: fresh plasma, pH 7.4, Plasma protein binding, range over control and SIDM rats
[4] = ref Lawendy et al., 2009; Dowty et al., 2014; cited from earlier work
[5] = format: in vivo, rat; conditions: for AUC / clearance / MRT / half-life / Vd: plasma; for clearance: CL; for half-life: Terminal half-life; for Vd: VSS
[6] = Tissue distribution of tofacitinib 30 min after intravenous administration; format: in vivo, rat; conditions: 30 min after intravenous 10 mg/kg, control and SIDM rats
[7] = intestinal microsomes
P-glycoprotein (P-gp) = conditions: ref Hussa, 2014; cited from earlier work
[8] = intravenous 10 mg/kg, SIDM rats
[9] = intravenous 10 mg/kg, SIDM vs control
[10] = intravenous 10 mg/kg, control rats
[11] = rat, iv, 10 mg/kg, control rats

With C[C@@H]1CCN(C(=O)CC#N)C[C@@H]1N(C)c1ncnc2[nH]ccc12 [tofacitinib, 3-[(3R,4R)-4-methyl-3-[methyl-(7H-pyrrolo[2,3-day]pyrimidin-4-yl)amino]piperidin-1-yl]-3-oxopropanenitrile] the “Ae0-24 h (dose excreted in urine for 24 h)” value (shortened to “Ae0-24 h”) ([1]; oral 20 mg/kg, SIDM rats) was 6.94 ± 2.42 % of dose, the “GI24 h (dose remaining in the gastrointestinal tract at 24 h)” value ([1]; oral 20 mg/kg, SIDM rats, 20 mg/kg) was 0.238 % of dose and 0.238 ± 0.160 % of dose and the “AUC lower in SIDM rats than control rats” value ([1]; oral 20 mg/kg, SIDM vs control) was 55.5%. For the same molecule, the “CLR higher in SIDM rats than control rats” value ([1]; oral 20 mg/kg, SIDM vs control) was 145%, the “Cmax lower in SIDM rats than control rats” value ([1]; oral 20 mg/kg, SIDM vs control) was 61.1% and the “Decrease of F (bioavailability) in SIDM rats vs control rats” value ([1]; oral 20 mg/kg, SIDM vs control, 20 mg/kg) was 33%. For the same molecule, the “Ae0-24 h” value ([1]; oral 20 mg/kg, control rats) was 7.98 ± 1.34 % of dose, the “GI24 h (dose remaining in the gastrointestinal tract at 24 h)” value ([1]; oral 20 mg/kg, control rats, 20 mg/kg) was 0.177 % of dose and 0.177 ± 0.123 % of dose and the CL renal ([1]; rat, po, 20 mg/kg, oral 20 mg/kg, SIDM rats) was 21.7 ± 14.9 mL/min/kg. It also gave a CL renal ([1]; rat, po, 20 mg/kg, oral 20 mg/kg, control rats) of 8.86 ± 13.5 mL/min/kg, a bioavailability ([1]; rat, plasma, 20 mg/kg, SIDM rats) of 23.8% and a bioavailability ([1]; rat, plasma, 20 mg/kg, control rats) of 35.5%. The AUC ([1]; rat, plasma, po, 20 mg/kg, oral 20 mg/kg, SIDM rats (n=7)) was 1350 ng·h/mL, the AUC ([1]; rat, plasma, po, 20 mg/kg, oral 20 mg/kg, control rats (n=8)) was 3030 ng·h/mL and the Cmax ([1]; rat, plasma, po, 20 mg/kg, Cmax, oral 20 mg/kg, SIDM rats) was 680 ± 360 ng/mL. For the same molecule, the Tmax ([1]; rat, plasma, po, 20 mg/kg, oral 20 mg/kg, SIDM rats) was 25.7 min, the Tmax ([1]; rat, plasma, po, 20 mg/kg, oral 20 mg/kg, control rats) was 17.9 min and the “CLint faster in SIDM rats than control rats” value [2] was 112%. For the same molecule, the “Km smaller in SIDM rats than control rats” value [2] was 44.3%, the fraction unbound at 24 h, 10 µg/mL [3] was 0.769 to 0.781 and the Terminal half-life [4] was “approximately 3.3 h”. For the same molecule, the “Ae0-24 h” value [5, 8] was 6.64 ± 1.65 % of dose, the CLNR [5, 8] was 55.5 ± 9.79 mL/min/kg and the “CLR estimated from the free (unbound to plasma proteins) fraction” value [5, 8] was 6.15 mL/min/kg. For the same molecule, the “Contribution of CLR to CL” value [5, 8] was 7.97%, the “AUC smaller in SIDM rats than control rats” value [5, 9] was 33.6% and the “CL higher in SIDM rats than control rats” value [5, 9] was 51.1%. For the same molecule, the “CLNR higher in SIDM rats than control rats” value [5, 9] was 43.8%, the “CLR higher in SIDM rats than control rats” value [5, 9] was 87.5% and the “Vss greater in SIDM rats than control rats” value [5, 9] was 262%. The “Ae0-24 h” value [5, 10] was 6.99 ± 2.30 % of dose, the CLNR [5, 10] was 38.6 ± 8.04 mL/min/kg and the “CLR estimated from the free (unbound to plasma proteins) fraction” value [5, 10] was 3.33 mL/min/kg. The “Contribution of CLR to CL” value [5, 10] was 6.42%, the CL renal ([5]; rat, plasma and urine, iv, 10 mg/kg, CLR, control rats) was 2.56 ± 0.59 mL/min/kg and the AUC ([5]; rat, iv, 10 mg/kg, SIDM rats (n=7)) was 2830 ng·h/mL. The AUC ([5]; rat, iv, 10 mg/kg, control rats (n=9)) was 4270 ng·h/mL, the clearance ([5]; rat, iv, 10 mg/kg, SIDM rats) was 60.3 ± 11.1 mL/min/kg and the clearance [5, 11] was 39.9 ± 6.74 mL/min/kg. The MRT ([5]; rat, iv, 10 mg/kg, SIDM rats) was 44.3 min, the MRT [5, 11] was 21.3 min and the half-life ([5]; rat, iv, 10 mg/kg, SIDM rats) was 26.5 ± 2.81 min. For the same molecule, the half-life [5, 11] was 30.2 ± 4.83 min, the Vd ([5]; rat, iv, 10 mg/kg, SIDM rats) was 3.56 ± 2.38 L/kg and the Vd [5, 11] was 0.986 ± 0.379 L/kg. The Tissue distribution [6] was “widely distributed”, the “Km, SIDM vs control rats” value [7] was “comparable” and the “CLint faster in SIDM rats than control rats” value ([7]; SIDM vs control) was 35.4%. The “P-glycoprotein (P-gp) substrate status” value (P-glycoprotein (P-gp)) was “substrate of P-glycoprotein”.
